By Emax is commonly meant the size of the effect at its maximum, as opposed to the concentration needed.

The first experiment addresses T1, human OX2R (Homo sapiens, UniProt O43614).
T1 sequence (O43614 1-444): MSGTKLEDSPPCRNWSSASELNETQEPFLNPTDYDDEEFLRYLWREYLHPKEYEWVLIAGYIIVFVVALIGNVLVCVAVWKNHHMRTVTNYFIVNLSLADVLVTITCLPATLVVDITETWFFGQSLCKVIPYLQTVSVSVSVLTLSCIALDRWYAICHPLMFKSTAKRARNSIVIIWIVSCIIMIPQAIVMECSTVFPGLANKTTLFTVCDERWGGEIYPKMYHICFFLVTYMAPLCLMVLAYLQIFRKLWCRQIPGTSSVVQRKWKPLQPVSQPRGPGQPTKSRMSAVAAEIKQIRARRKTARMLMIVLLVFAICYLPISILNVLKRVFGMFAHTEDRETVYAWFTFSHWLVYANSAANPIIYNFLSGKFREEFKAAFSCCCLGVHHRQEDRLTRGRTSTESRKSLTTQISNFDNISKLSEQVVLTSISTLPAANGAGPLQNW
Briefly: IPOne (IP-1) orexin receptor agonist assay in CHO cells expressing human OX2R. The following applies: CHO, hOX2R IP-One; percentage of mean max effect of a reference compound at 1 uM with 100% activity.
The compound `C[C@@H]1C[C@H](NS(C)(=O)=O)[C@@H]2COC3CCC(CC3)c3ccccc3/C=C/OC(=O)N12` [Example 2, N-((2^1R,2^4R,5^2R,5^3S,5^5R,E)-5^5-methyl-6-oxo-3,7-dioxa-5(2,1)-pyrrolidina-1(1,2)-benzena-2(1,4)-cyclohexanacyclonaphan-8-en-5^3-yl)methanesulfonamide] yielded a maximal effect (Emax) of 102%.
`COC[C@@H]1C[C@H](NS(C)(=O)=O)[C@@H]2COC3CCC(CC3)c3cccc(F)c3/C=C/OC(=O)N12` [Example 3, N-((2^1R,2^4R,5^2R,5^3S,5^5S,E)-1^3-fluoro-5^5-(methoxymethyl)-6-oxo-3,7-dioxa-5(2,1)-pyrrolidina-1(1,2)-benzena-2(1,4)-cyclohexanacyclonaphan-8-en-5^3-yl)methanesulfonamide]: the Emax came out at 99.5%.
Regarding `C[C@@H]1C[C@H](NS(=O)(=O)N(C)C)[C@@H]2COC3CCC(CC3)c3ccccc3CCOC(=O)N12` [Example 4, N′-((2′R,2^4R,5^2R,5^3S,5^5R)-5^5-methyl-6-oxo-3,7-dioxa-5(2,1)-pyrrolidina-1(1,2)-benzena-2(1,4)-cyclohexanacyclononaphane-5^3-yl)-N,N-dimethyl-sulfamide], the Emax was determined as 101%.
On to `C[C@@H]1C[C@H](NS(C)(=O)=O)[C@@H]2COC3CCC(CC3)c3ccccc3CCOC(=O)N12` [Example 5, N-((2^1R,2^4R,5^2R,5^3S, 5^5R)-5^5-methyl-6-oxo-3,7-dioxa-5(2,1)-pyrrolidina-1(1,2)-benzena-2(1,4)-cyclo-hexanacyclonaphane-5^3-yl)methane sulfonamide], for which the maximum response (Emax) turned out to be 100%.
For `COC[C@@H]1C[C@H](NS(C)(=O)=O)[C@@H]2COC3CCC(CC3)c3cccc(F)c3CCOC(=O)N12` [Example 6, N-((2^1R,2^4R,5^2R,5^3S, 5^5S)-1^3-fluoro-5^5-(methoxymethyl)-6-oxo-3,7-dioxa-5(2,1)-pyrrolidina-1(1,2)-benzena-2(1,4)-cyclo-hexanacyclonaphane-5^3-yl)methane sulfonamide], the Emax was found to be 100%.
Take `CN(C)S(=O)(=O)N[C@H]1CCN2C(=O)CCCCOc3cccc(c3)[C@H]3CC[C@H](CC3)OC[C@@H]12` [Example 7, N′-((2^1S,2^4S,5^2R,5^3S)-6-oxo-3,11-dioxa-5(2,1)-pyrrolidina-1(1,3)-benzena-2(1,4)-cyclohexanacycloundecaphane-5^3-yl)-N,N-dimethyl-sulfamide]: the Emax stood at 104%.
With `C[C@@H]1C[C@H](NS(=O)(=O)N(C)C)[C@@H]2COC3CCC(CC3)c3cccc(c3)OCCCCCC(=O)N12` [Example 8, N′-((2^1S,2^4S,5^2R,5^3S,5^5R)-5^5-methyl-6-oxo-3,12-dioxa-5(2,1)-pyrrolidina-1(1,3)-benzena-2(1,4)-cyclohexanacyclododecaphane-5^3-yl)-N,N-dimethyl-sulfamide], the Emax amounted to 100%.
With `C[C@@H]1C[C@H](NS(=O)(=O)N(C)C)[C@@H]2COC3CCC(CC3)c3cccc(c3)OCCC=CC(=O)N12` [Example 9, N′-((2^1S,2^4S,5^2R,5^3S, 5^5R)-5^5-methyl-6-oxo-3,11-dioxa-5(2,1)-pyrrolidina-1(1,3)-benzena-2(1,4)-cyclohexanacycloundecaphan-7-en-5^3-yl)-N,N-dimethyl-sulfamide], the Emax is 100%.
`C[C@@H]1C[C@H](NS(=O)(=O)N(C)C)[C@@H]2COC3CCC(CC3)c3cccc(c3)OCCCCC(=O)N12` [Example 10, N′-((2^1S,2^4S,5^2R,5^3S, 5^5R)-5^5-methyl-6-oxo-3,11-dioxa-5(2,1)-pyrrolidina-1(1,3)-benzena-2(1,4)-cyclohexanacycloundecaphane-5^3-yl)-N,N-dimethyl-sulfamide] came in with an Emax of 101%.
The compound `C[C@@H]1C[C@H](NS(=O)(=O)N(C)C)[C@@H]2COC3CCC(CC3)c3cccc(c3)OCCCCOC(=O)N12` [Example 11, N′-((2^1S,2^4S,5^2R,5^3S,5^5R)-5^5-methyl-6-oxo-3,7,12-trioxa-5(2,1)-pyrrolidina-1(1,3)-benzena-2(1,4)-cyclohexanacyclododecaphane-5^3-yl)-N,N-dimethyl-sulfamide] yielded a maximal response (Emax) of 101%.
`C[C@@H]1C[C@H](NS(=O)(=O)N(C)C)[C@@H]2CO[C@H]3CC[C@H](CC3)c3cccc(c3)CCCCCC(=O)N12` [Example 12, N′-((2^1S,2^4S,5^2R,5^3S,5^5R)-5^5-methyl-6-oxo-3-oxa-5(2,1)-pyrrolidina-1(1,3)-benzena-2(1,4)cyclohexanacycloundecaphane-5^3-yl)-N,N-dimethyl-sulfamide] returned an Emax of 101%.
On to `C[C@@H]1C[C@H](NS(=O)(=O)N(C)C)C2COC3CCC(CC3)c3cccc(c3)OCCCC(=O)N21` (stereo partly drawn) [Example 14, N′-((2^1S,2^4S,5^2R, 5^3S,5^5R)-5^5-methyl-6-oxo-3,10-dioxa-5(2,1)-pyrrolidina-1(1,3)-benzena-2(1,4)-cyclohexana-cyclodecaphane-5^3-yl)-N,N-methyl-sulfamide], for which the Emax stood at 100%.
The same measure, in the same setting: then `CN(C)S(=O)(=O)N[C@H]1CCN2C(=O)OCCCOc3cccc(c3)[C@H]3CC[C@H](CC3)OC[C@@H]12` [Example 16, N′-((2^1S,2^4S, 5^2R,5^3S)-6-oxo-3,7,11-trioxa-5(2,1)-pyrrolidina-1(1,3)-benzena-2(1,4)-cyclohexana-cyclounde-caphane-5^3-yl)-N,N-dimethyl-sulfamide], with 99.1%; and `C[C@@H]1C[C@H](NS(C)(=O)=O)C2COC3CCC(CC3)c3cccc(c3)OCCOC(=O)N21` (stereo partly drawn) [Example 17, N-((2^1S,2^4S, 5^2R,5^3S,5^5R)-5^5-methyl-6-oxo-3,7,10-trioxa-5(2,1)-pyrrolidina-1(1,3)-benzena-2(1,4)-cyclohexana-cyclodecaphane-5^3-yl) methanesulfonamide], with 100%.
Consider `C[C@@H]1C[C@H](NS(C)(=O)=O)C2COC3CCC(CC3)c3cccc(c3)OCCCOC(=O)N21` (stereo partly drawn) [Example 18, N-((2^1S,2^4S, 5^2R,5^3S,5^5R)-5^5-methyl-6-oxo-3,7,11-trioxa-5(2,1)-pyrrolidina-1(1,3)-benzena-2(1,4)-cyclohexana-cyclounde-caphane-5^3-yl) methanesulfonamide], for which the maximum response (Emax) was determined as 100%.
Compound `C[C@@H]1C[C@H](NS(C)(=O)=O)C2COC3CCC(CC3)c3cccc(c3)OCCCCC(=O)N21` (stereo partly drawn) [Example 19, N-((2^1S,2^4S, 5^2R,5^3S,5^5R)-5^5-methyl-6-oxo-3,11-dioxa-5(2,1)-pyrrolidina-1(1,3)-benzena-2(1,4)-cyclohexana-cyclounde-caphane-5^3-yl) methanesulfonamide] displayed an Emax of 101%.
Same read-out and setting: the result for `C[C@@H]1C[C@H](NS(C)(=O)=O)C2COC3CCC(CC3)c3cccc(c3)OCCCC(=O)N21` (stereo partly drawn) [Example 20, N-((2^1S,2^4S, 5^2R,5^3S,5^5R)-5^5-methyl-6-oxo-3,10-dioxa-5(2,1)-pyrrolidina-1(1,3)-benzena-2(1,4)-cyclohexana-cyclodecaphane-5^3-yl) methanesulfonamide] reads 101%.

The experiment is the same for the next values; noted with them: hOX2R IP-One; percentage of mean max effect of a reference compound at 1 uM with 100% activity.
For `CS(=O)(=O)NC1CCCN2C(=O)CCCOc3cccc(c3)C3CCC(C3)OCC12` (single isomer, unassigned) [Example 34, N-((2^1S,2^3R,5^2R,5^3S)-6-oxo-3,10-dioxa-5(2,1)-piperidina-1(1,3)-benzena-2(1,3)-cyclopentanacyclodecaphane-5^3-yl)methanesulfonamide], the “Emax (%)” value is reported as 5.0%.
For `CS(=O)(=O)NC1CCCN2C(=O)CCCOc3cccc(c3)C3CCC(C3)OCC12` (single isomer, unassigned) [Example 35, N-((2^1S,2^3R,5^2R,5^3S)-6-oxo-3,10-dioxa-5(2,1)-piperidina-1(1,3)-benzena-2(1,3)-cyclopentanacyclodecaphane-5^3-yl)methanesulfonamide], the “Emax (%)” value is 100.1%.
`CS(=O)(=O)NC1CCCN2C(=O)CCCOc3cccc(c3)C3CCC(C3)OCC12` (single isomer, unassigned) [Example 36, N-((2^1S,2^3R,5^2R,5^3S)-6-oxo-3,10-dioxa-5(2,1)-piperidina-1(1,3)-benzena-2(1,3)-cyclopentanacyclodecaphane-5^3-yl)methanesulfonamide]: the “Emax (%)” value came to 103.3%.
Take `CN(C)S(=O)(=O)NC1CCCN2C(=O)OCCc3ccccc3C3CCC(CC3)OCC12` (single isomer, unassigned) [Example 38, N′-((2^1S,2^4S,5^2R,5^3S)-6-oxo-3,7-dioxa-5(2,1)-piperidina-1(1,2)-benzena-2(1,4)-cyclohexanacyclononaphane-5^3-yl)-N,N-dimethyl-sulfamide]: the “Emax (%)” value was determined as 100.8%.
Take `CN(C)S(=O)(=O)NC1CCCN2C(=O)OCCc3ccccc3C3CCC(CC3)OCC12` (single isomer, unassigned) [Example 39, N′-((2^1S,2^4S,5^2R,5^3S)-6-oxo-3,7-dioxa-5(2,1)-piperidina-1(1,2)-benzena-2(1,4)-cyclohexanacyclononaphane-5^3-yl)-N,N-dimethyl-sulfamide]: the “Emax (%)” value amounted to 4.4%.
For `CN(C)S(=O)(=O)NC1CCCN2C(=O)OCCc3ccccc3C3CCC(CC3)OCC12` (single isomer, unassigned) [Example 40, N′-((2^1S,2^4S,5^2R,5^3S)-6-oxo-3,7-dioxa-5(2,1)-piperidina-1(1,2)-benzena-2(1,4)-cyclohexanacyclononaphane-5^3-yl)-N,N-dimethyl-sulfamide], the “Emax (%)” value is recorded as 71.6%.
Turning to `CC1CC(NS(=O)(=O)N(C)C)C2COC3CCC(CC3)c3cccc(c3)OCCCOC(=O)N12` (stereo not drawn) [Example 13], the “Emax (%)” value amounted to 99.3%.

The record behind these values is US20240002397A1, “3-AMINO PYRROLIDINE AND PIPERIDINE MACROCYCLIC OREXIN RECEPTOR AGONISTS” (Merck Sharp & Dohme LLC, priority 2020, published 2024).
